# PMC3333808 (Cell Reports, 2012)
# T1: SecYEG (Escherichia coli, UniProt P0AG96+P0AG99+P0AGA2)
# T1 sequence (P0AGA2 1-443): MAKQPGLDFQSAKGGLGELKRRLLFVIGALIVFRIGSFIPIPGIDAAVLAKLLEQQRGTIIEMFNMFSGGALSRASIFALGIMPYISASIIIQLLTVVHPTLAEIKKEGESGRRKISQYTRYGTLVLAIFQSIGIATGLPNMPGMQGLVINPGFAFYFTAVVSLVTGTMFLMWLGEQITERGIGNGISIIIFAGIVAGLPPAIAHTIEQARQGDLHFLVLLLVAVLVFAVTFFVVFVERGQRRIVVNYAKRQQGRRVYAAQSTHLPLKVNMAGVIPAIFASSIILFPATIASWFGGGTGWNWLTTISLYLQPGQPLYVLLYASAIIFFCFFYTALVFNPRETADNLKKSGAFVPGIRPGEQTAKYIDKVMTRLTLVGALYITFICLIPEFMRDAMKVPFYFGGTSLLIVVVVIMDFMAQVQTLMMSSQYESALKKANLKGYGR
# T1 sequence (P0AG96 1-127 partner): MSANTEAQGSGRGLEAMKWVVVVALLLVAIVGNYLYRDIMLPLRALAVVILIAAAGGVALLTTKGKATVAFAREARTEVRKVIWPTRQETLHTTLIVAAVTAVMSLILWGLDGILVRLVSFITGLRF
# T1 sequence (P0AG99 1-110 partner): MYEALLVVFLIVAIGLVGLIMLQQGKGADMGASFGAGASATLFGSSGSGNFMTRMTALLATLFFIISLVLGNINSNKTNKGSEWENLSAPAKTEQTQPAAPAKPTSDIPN
# T2: SecYEG complex (E. coli, UniProt P0AGA2 1-443; P0AG96 1-127; P0AG99 1-110)
# T2 sequence (looked up) 1: T1 sequence (P0AGA2 1-443)
# T2 sequence (looked up) 2: T1 sequence (P0AG96 1-127 partner)
# T2 sequence (looked up) 3: T1 sequence (P0AG99 1-110 partner)
# Assays:
# SecYEG [1] = molecular target: T1, SecYEG; type: binding; settings: 1.65 μM SecYEG, 3.2 mg/ml E. coli polar lipids, 10 μM peptide; reisolated by centrifugation; SDS-PAGE, silver staining; Figure 1D
# SecA = settings: synthetic LamB signal peptide; ref Gelis et al., 2007; cited from earlier work
# SecYEG [2] = settings: membranes containing SecYEG; ref Simon and Blobel, 1992; cited from earlier work
# SecYEG [3] = molecular target: T1, SecYEG; assay: Translocation of OmpA into vesicles coreconstituted with SecYEG and peptide; type: biochemical; settings: vesicles reisolated from excess unbound peptide; western blot; n = 8; Figure 1E
# SecYEG [4] = molecular target: T1, SecYEG; assay: SecA/ATP-driven translocation of preprotein proOmpA into SecYEG proteoliposomes; type: biochemical; settings: proteoliposomes containing SecYEG; 0.7 μM proOmpA; 25°C, pH 7.5; proteinase K protection, western blot; Figures 1A and 1B
# trypsin = assay: Resistance of peptide in SecYEG 2D crystals to trypsin; type: in vitro ADME; settings: 1:100 (w/w) trypsin, 20 min, room temperature; Coomassie-stained SDS-PAGE; Figure 1F
# SecYEG [5] = settings: dimer vs monomer; ref Deville et al., 2011; cited from earlier work
# SecYEG complex [6] = molecular target: T2, SecYEG complex; assay: co-sedimentation
# SecYEG complex [7] = molecular target: T2, SecYEG complex; assay: cryo-EM structure
molecule,measurement,setting,value
MMITLRKLP-(ΔLAVA)-VAAGVMSAQAYA-VDFHGYARSGIGWTG [SSΔ4-β1],peptide retained following coreconstitution with SecYEG,SecYEG [1],"but not SSΔ4-β1, were retained following coreconstitution with SecYEG"
MMITLRKLPLAVAVAAGVMSAQAYA [SS],effect of association with SecA on protein translocation,SecA,competitive inhibition of protein translocation
same,peptide retained following coreconstitution with SecYEG,SecYEG [1],retained following coreconstitution with SecYEG
same,channel opening,SecYEG [2],opens channels in membranes containing SecYEG
same,translocation of OmpA after coreconstitution of SecYEG with peptide,SecYEG [3],permitted the translocation of OmpA
MMITLRKLPLAVAVAAGVMSAQAYA-VDFHGYARSGIGWTG [SS-β1],peptide retained following coreconstitution with SecYEG,SecYEG [1],retained following coreconstitution with SecYEG
same,translocation of OmpA after coreconstitution of SecYEG with peptide,SecYEG [3],permitted the translocation of OmpA
same,inhibition of SecA/ATP-driven translocation of proOmpA,SecYEG [4],quantitatively inhibits
same,resistance to proteolysis by trypsin in SecYEG 2D crystals,trypsin,resistance to proteolysis
SecA: ATPase that associates peripherally with the protein-channel complex SecYEG,affinity of SecA for the SecYEG dimer over the monomer,SecYEG [5],10 fold
MMITLRKLPLAVAVAAGVMSAQAYA [LamB signal sequence peptide (SS)],binding result,SecYEG complex [6],binds
MMITLRKLPLAVAVAAGVMSAQAYAVDFHGYARSGIGWTG [LamB signal sequence plus the first β strand peptide (SS-β1)],stoichiometry N,SecYEG complex [7],1 substrate per SecYEG dimer
